Results as given in the supplement of paper PMC8671470.
Counter-ions that a name gives are not always drawn.

Columns and labels:
Test in all cases: cell viability (% survival relative to DMSO control); higher = less cytotoxic
Conditions in all cases: 72 h
[1] = system: BV-173
Protocol: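 8x8 drug-combination matrices (0–5000 nM; rosiglitazone and lestaurtinib 0–1000 nM) were run in BV-173 cells for 72 h with CellTiter-Glo read-out. Survival is normalised to DMSO and 10 µM bortezomib and clipped at 100%.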

[2] = system: HL-60
Protocol: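 8x8 drug-combination matrices (0-5000 nM; rosiglitazone and lestaurtinib 0-1000 nM) were run in HL-60 cells for 72 h with a CellTiter-Glo read-out. Survival is normalised to DMSO and 10 µM bortezomib and clipped at 100%. Bliss synergy was analysed in SynergyFinder.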

[3] = system: Mono-Mac-6
Protocol: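 8x8 drug-combination matrices (0–5000 nM; rosiglitazone and lestaurtinib 0–1000 nM) were run in Mono-Mac-6 cells for 72 h with CellTiter-Glo read-out. Survival is normalised to DMSO and 10 µM bortezomib and clipped at 100%.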

CN(CCOc1ccc(Cc2sc(O)nc2O)cc1)c1ccccn1 [Rosiglitazone] + CC(C)(Cc1ccccc1)NCC(O)c1ccc(O)c(NS(C)(=O)=O)c1 [Zinterol hydrochloride]
cell viability [%]
Conditions	drug1 concentration 1 nM	drug1 concentration 5 nM	drug1 concentration 10 nM	drug1 concentration 50 nM	drug1 concentration 100 nM	drug1 concentration 500 nM	drug1 concentration 1000 nM
[1], drug2 concentration 5 nM	> 100	> 100	> 100	> 100	> 100	> 100	> 100
[1], drug2 concentration 10 nM	> 100	86.8	> 100	> 100	> 100	> 100	> 100
[1], drug2 concentration 50 nM	98.6	> 100	88.7	> 100	91.5	> 100	> 100
[1], drug2 concentration 100 nM	> 100	> 100	> 100	> 100	> 100	97.1	> 100
[1], drug2 concentration 500 nM	> 100	> 100	> 100	> 100	> 100	> 100	> 100
[1], drug2 concentration 1000 nM	> 100	89.5	> 100	94.1	> 100	> 100	> 100
[1], drug2 concentration 5000 nM	94.8	> 100	90.4	> 100	> 100	97.6	> 100
[2], drug2 concentration 5 nM	87.9	41.2	> 100	97.5	> 100	> 100	> 100
[2], drug2 concentration 10 nM	63.4	95.3	> 100	> 100	62.7	> 100	> 100
[2], drug2 concentration 50 nM	83.3	83	83.9	> 100	58.8	> 100	92.8
[2], drug2 concentration 100 nM	> 100	92.2	90.1	> 100	80.5	78.9	> 100
[2], drug2 concentration 500 nM	90.1	> 100	> 100	95.3	> 100	72.1	80.8
[2], drug2 concentration 1000 nM	40.6	> 100	> 100	> 100	> 100	60.1	> 100
[2], drug2 concentration 5000 nM	59.8	94.4	> 100	> 100	> 100	> 100	97.7
[3], drug2 concentration 5 nM	83	77.8	> 100	79.7	78.7	27.6	21.7
[3], drug2 concentration 10 nM	66.3	76	74.4	89.6	60.8	20.5	24.5
[3], drug2 concentration 50 nM	86.8	79.1	74.5	76.7	45.8	29.2	28.8
[3], drug2 concentration 100 nM	70.8	77.4	78.3	62.9	49.7	28	18.9
[3], drug2 concentration 500 nM	74.7	67.8	67.6	66.1	47.9	28.4	27.1
[3], drug2 concentration 1000 nM	76.3	86.7	74.7	66.2	45.4	20.5	32.7
[3], drug2 concentration 5000 nM	55.9	64.8	51.4	46.9	49.4	22	0

CN(CCOc1ccc(Cc2sc(O)nc2O)cc1)c1ccccn1 [Rosiglitazone] + c1cc(-c2cnn3cc(-c4ccc(OCCN5CCCCC5)cc4)cnc23)ccn1 [Dorsomorphin]
cell viability [%]
Conditions	drug1 concentration 1 nM	drug1 concentration 5 nM	drug1 concentration 10 nM	drug1 concentration 50 nM	drug1 concentration 100 nM	drug1 concentration 500 nM	drug1 concentration 1000 nM
[1], drug2 concentration 5 nM	> 100	> 100	> 100	> 100	> 100	> 100	91.8
[1], drug2 concentration 10 nM	> 100	> 100	> 100	97.8	> 100	> 100	> 100
[1], drug2 concentration 50 nM	58.5	> 100	> 100	> 100	> 100	> 100	> 100
[1], drug2 concentration 100 nM	> 100	99.4	> 100	77.2	> 100	> 100	> 100
[1], drug2 concentration 500 nM	> 100	> 100	94.2	> 100	> 100	98.4	95.3
[1], drug2 concentration 1000 nM	91.7	> 100	62.5	> 100	> 100	> 100	> 100
[1], drug2 concentration 5000 nM	75.2	85	99.8	93.5	97.2	> 100	> 100
[2], drug2 concentration 5 nM	> 100	95	74	> 100	> 100	94.8	> 100
[2], drug2 concentration 10 nM	> 100	> 100	> 100	> 100	> 100	> 100	> 100
[2], drug2 concentration 50 nM	94.3	> 100	> 100	> 100	81.2	> 100	> 100
[2], drug2 concentration 100 nM	91.4	> 100	> 100	> 100	> 100	> 100	> 100
[2], drug2 concentration 500 nM	90.8	> 100	84.6	> 100	> 100	60.9	> 100
[2], drug2 concentration 1000 nM	88	> 100	40.1	> 100	86.7	87.6	96.3
[2], drug2 concentration 5000 nM	12.7	33.1	33.7	24.4	65.7	82.5	90.1
[3], drug2 concentration 5 nM	> 100	> 100	93	> 100	89	49.2	33.8
[3], drug2 concentration 10 nM	> 100	85.1	84.3	84.5	76	36.1	32.6
[3], drug2 concentration 50 nM	87.3	81.8	78.8	94.7	85.6	47.2	33.5
[3], drug2 concentration 100 nM	68.8	> 100	84.1	74.5	81.5	28.7	31.1
[3], drug2 concentration 500 nM	78.1	59.9	54.8	60.7	53.5	22.8	6.36
[3], drug2 concentration 1000 nM	42.4	38.6	35.9	47.5	37.7	11.6	9.67
[3], drug2 concentration 5000 nM	6.04	9.54	9.61	9.94	12.2	5.66	12.4
